The results in this text go back to ChEMBL document CHEMBL1201862, “PubChem BioAssay data set” (2004).

Among the test systems are CCRF-CEM; HCT-116; HCT-15; IGROV-1; CAKI-1; UACC-257; M14; K562; UACC-62; SNB-19; NCI-H226; DMS-273; OVCAR-8; U-251; A498.
What all share (assay): DTP human tumour cell line panel, 48 h

Structures are written as SMILES.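 Exposure lasted 48 hours, with cells grown in 96-well plates and compounds tested at five concentrations. GI50 = concentration required for 50% inhibition of growth.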 Activity calls are given as the source filed them. Rule as the data show it: active = GI50 up to about 1.1 µM and inactive = higher. Some results are limits rather than exact numbers.

What is called GI50 is the concentration that inhibits growth by half. Consider `CCOC(=O)C1C(c2ccc(Br)cc2)N(Cc2ccccc2)C(c2ccc(Br)cc2)C(C(=O)OC)S1(=O)=O` (stereo not drawn), for which the GI50 in the assay on CCRF-CEM is 40.4 µM (inactive); with HCT-116, 25.2 µM (inactive); in the assay with HCT-15 it was above 100 µM; in the assay on IGROV-1 it was > 100 µM (inactive); with CAKI-1, 77.1 µM (inactive); with UACC-257, 24.9 µM (inactive). For the same compound, the GI50 in the assay on M14 is 83.4 µM (inactive); in the assay on K562, 87.7 µM (inactive); in the assay on UACC-62, > 100 µM (inactive); in the assay on SNB-19 it was 27.5 µM (inactive); in the assay on NCI-H226, 46.8 µM (inactive); in the assay with DMS-273, 74.1 µM (inactive). In the assay on OVCAR-8, the GI50 was 24.8 µM (inactive).

Consider `O=C(N/C(=C\c1ccc2c(c1)OCO2)c1nc2ccccc2[nH]1)c1ccccc1`, for which the GI50 in the assay on CCRF-CEM was 26.9 µM (inactive); with HCT-116, 31.3 µM (inactive); with HCT-15, 35.6 µM; in the assay on IGROV-1, 27.7 µM (inactive); with CAKI-1, 33.6 µM (inactive); in the assay with UACC-257, 19.6 µM (inactive). The GI50 in the assay with M14 was 25.1 µM (inactive); in the assay on K562 it was 24.3 µM (inactive); with UACC-62, 20.9 µM (inactive); in the assay with SNB-19, 36 µM (inactive); in the assay with NCI-H226 it was 21 µM (inactive); in the assay on U-251, 32 µM (inactive). In addition, the GI50 is 28.8 µM (inactive) with DMS-273, 33.1 µM (inactive) in the assay on A498 and 37 µM (inactive) with OVCAR-8.

For the compound `CC(C)N(C(=O)C12C3C4C1(I)C1C2C3(I)C41C(=O)N(C(C)C)C(C)C)C(C)C` (stereo not drawn), the GI50 is > 41.8 µM (inactive) with CCRF-CEM; > 100 µM (inactive) with HCT-116; above 43.3 µM in the assay on HCT-15; > 100 µM (inactive) with IGROV-1; > 100 µM (inactive) with CAKI-1; > 100 µM (inactive) in the assay with UACC-257. Besides, the GI50 in the assay with M14 is > 100 µM (inactive); in the assay on K562, > 43.4 µM (inactive); with UACC-62 it was > 100 µM (inactive); with SNB-19, > 100 µM (inactive); in the assay on NCI-H226, > 100 µM (inactive); in the assay with U-251, > 71 µM (inactive). Further, the GI50 with DMS-273, in the assay with A498 and in the assay on OVCAR-8 was > 100 µM (inactive) each time.

As to `Nc1nc(=O)c(/N=N/c2ccccc2)c(N)[nH]1`, the GI50 was 36.5 µM (inactive) in the assay on CCRF-CEM; 16.1 µM (inactive) with HCT-116; 30.5 µM in the assay on HCT-15; 29.6 µM (inactive) in the assay with IGROV-1; 66.7 µM (inactive) in the assay on CAKI-1; 56.9 µM (inactive) with UACC-257. In addition, the GI50 in the assay on M14 is 28 µM (inactive); in the assay on K562, 11 µM (inactive); in the assay on UACC-62 it was 18.6 µM (inactive); in the assay with SNB-19, > 100 µM (inactive); in the assay with NCI-H226 it was 76 µM (inactive); in the assay with U-251 it was 14.4 µM (inactive). The values for the GI50 in the assay with DMS-273, in the assay with A498 and in the assay with OVCAR-8 were 37.2 µM (inactive), 45.2 µM (inactive) and 43.5 µM (inactive), respectively.

Consider `O=C(O/N=C1/CCCC/C1=C\c1ccccc1)c1ccccc1`, for which the GI50 with CCRF-CEM was 36.8 µM (inactive); in the assay with HCT-116 it was 34 µM (inactive); in the assay with HCT-15 it was 84.3 µM; in the assay on IGROV-1, 0.108 µM (active); with UACC-257, > 100 µM (inactive); with M14 it was > 100 µM (inactive). Further, the GI50 is 20.8 µM (inactive) with K562; > 100 µM (inactive) in the assay on UACC-62; > 100 µM (inactive) in the assay with SNB-19; > 100 µM (inactive) in the assay with NCI-H226; 92.7 µM (inactive) in the assay with U-251; 40.3 µM (inactive) in the assay with DMS-273. Besides, the GI50 was 0.178 µM (active) in the assay with A498 and 42.5 µM (inactive) with OVCAR-8.

For the compound `CN(CCN(C)C(=O)CCn1cc(F)c(=O)[nH]c1=O)C(=O)CCn1cc(F)c(=O)[nH]c1=O`, the GI50 was > 100 µM (inactive) in the assay with CCRF-CEM; > 100 µM (inactive) in the assay on HCT-116; above 100 µM in the assay with HCT-15; > 100 µM (inactive) with IGROV-1; > 100 µM (inactive) with M14; > 100 µM (inactive) in the assay with K562. Also, the GI50 with UACC-62, in the assay with SNB-19, in the assay on NCI-H226, in the assay with U-251, in the assay on DMS-273 and in the assay with OVCAR-8 was > 100 µM (inactive) throughout.

Consider `O=C1CC2CCN(C(=O)c3ccccc3)CC2CCN1.O=C1CCC2CC(C(=O)c3ccccc3)CCC2CN1` (stereo not drawn), for which the GI50 was > 100 µM (inactive) with CCRF-CEM; > 100 µM (inactive) in the assay on HCT-116; above 100 µM in the assay on HCT-15; > 100 µM (inactive) in the assay with IGROV-1; > 100 µM (inactive) in the assay with CAKI-1; > 100 µM (inactive) with UACC-257. Besides, the GI50 in the assay on M14 is > 100 µM (inactive); in the assay on K562 it was > 100 µM (inactive); in the assay with UACC-62, 52.1 µM (inactive); in the assay with SNB-19, > 100 µM (inactive); with NCI-H226, > 100 µM (inactive); in the assay on U-251, > 100 µM (inactive). Further, the GI50 in the assay with DMS-273 and with OVCAR-8 was > 100 µM (inactive) each time.

In the case of `CC(=O)OCC(OC(C)=O)C(OC(C)=O)C(OC(C)=O)C(=O)CNn1c(-c2ccc(C)cc2)nc2ccccc2c1=O` (stereo not drawn), the GI50 with CCRF-CEM is > 100 µM (inactive); with HCT-116 it was > 100 µM (inactive); in the assay on HCT-15, above 100 µM; in the assay with CAKI-1 it was 90.2 µM (inactive); in the assay with UACC-257, > 100 µM (inactive); with M14, > 100 µM (inactive). Also, the GI50 was > 100 µM (inactive) in the assay with K562; 60.5 µM (inactive) in the assay on UACC-62; > 100 µM (inactive) in the assay with SNB-19; > 100 µM (inactive) in the assay on U-251; > 100 µM (inactive) with DMS-273; > 100 µM (inactive) with A498. In the assay with OVCAR-8, the GI50 is > 100 µM (inactive).

Turning to `C=CCc1cc(OC)c(O)c(C(=O)/C=C/c2ccc(OC)c(OC)c2)c1`, the GI50 was 9.98 µM (inactive) with CCRF-CEM; 14.5 µM (inactive) in the assay with HCT-116; 44.6 µM (inactive) in the assay with IGROV-1; 22.1 µM (inactive) with CAKI-1; 19.3 µM (inactive) with UACC-257; 17 µM (inactive) in the assay with M14. The GI50 in the assay on K562 was 10.7 µM (inactive); with UACC-62, 23.8 µM (inactive); with SNB-19, 15.6 µM (inactive); in the assay on U-251, 17.4 µM (inactive); with DMS-273, 23.4 µM (inactive); with A498, 17.9 µM (inactive). Further, the GI50 in the assay with OVCAR-8 was > 10 µM (inactive).

For the compound `CN1CC(C(=O)C2C(=O)c3ccccc3C2=O)C(=O)C(=O)C(C(=O)C2C(=O)c3ccccc3C2=O)C1` (stereo not drawn), the GI50 was > 100 µM (inactive) in the assay with CCRF-CEM; > 100 µM (inactive) in the assay with HCT-116; above 100 µM in the assay on HCT-15; > 100 µM (inactive) in the assay with IGROV-1; > 100 µM (inactive) with CAKI-1; > 100 µM (inactive) in the assay on UACC-257. Further, the GI50 in the assay with M14 was > 10 µM (inactive); with K562 it was > 100 µM (inactive); in the assay on UACC-62, > 100 µM (inactive); in the assay with SNB-19, > 100 µM (inactive); in the assay on U-251, > 100 µM (inactive); in the assay with DMS-273, > 100 µM (inactive). Besides, the GI50 was > 100 µM (inactive) with A498 and 77.6 µM (inactive) with OVCAR-8.

Regarding `COC(=O)[C@@H]1CSC(=S)N1C(=O)C[C@H]1CC=CC[C@H]1CC(=O)Sc1ccccc1`, the GI50 in the assay with CCRF-CEM was 3.04 µM (inactive); in the assay with HCT-116, 16.1 µM (inactive); in the assay with HCT-15, 16.2 µM; with IGROV-1, 19.8 µM (inactive); in the assay on CAKI-1 it was > 10 µM (inactive); in the assay on UACC-257 it was 18.5 µM (inactive). The GI50 is 16.7 µM (inactive) in the assay on M14; 12.1 µM (inactive) with K562; 19.3 µM (inactive) in the assay with UACC-62; 18.2 µM (inactive) in the assay on SNB-19; 23.7 µM (inactive) in the assay on NCI-H226; 15.5 µM (inactive) with U-251. Besides, the GI50 in the assay with DMS-273 was 21.7 µM (inactive); in the assay on OVCAR-8, 21 µM (inactive).

With `C/C(=N\NS(=O)(=O)c1ccccc1)c1ccc[n+]([O-])n1`, the GI50 in the assay on CCRF-CEM is 19.4 µM (inactive); in the assay on HCT-116, 88.1 µM (inactive); with HCT-15, above 100 µM; in the assay on IGROV-1, > 100 µM (inactive); with CAKI-1 it was 34.1 µM (inactive); in the assay with UACC-257, 58.7 µM (inactive). Besides, the GI50 was 30.1 µM (inactive) with M14; 21 µM (inactive) in the assay with K562; > 100 µM (inactive) with UACC-62; > 100 µM (inactive) in the assay with SNB-19; > 100 µM (inactive) in the assay with U-251; > 100 µM (inactive) in the assay on DMS-273. Also, the GI50 in the assay with A498 is > 100 µM (inactive); in the assay with OVCAR-8, 81.7 µM (inactive).

As to `O=C1NC(=O)C(=Cc2c3ccccc3cc3ccccc23)C(=O)N1`, the GI50 is 59.3 µM (inactive) with CCRF-CEM; > 100 µM (inactive) in the assay on HCT-116; above 100 µM in the assay with HCT-15; > 100 µM (inactive) with IGROV-1; 47.2 µM (inactive) in the assay on CAKI-1; > 100 µM (inactive) in the assay on M14. The GI50 in the assay on K562 was 71.3 µM (inactive); in the assay with UACC-62, > 100 µM (inactive); in the assay on SNB-19, > 100 µM (inactive); in the assay on U-251 it was > 100 µM (inactive); in the assay on DMS-273, > 100 µM (inactive); in the assay with A498 it was > 100 µM (inactive). In addition, in the assay on OVCAR-8, the GI50 is > 100 µM (inactive).

Take `Cc1nn(-c2ccccc2)c2nc(N3CCOCC3)nnc12`: the GI50 in the assay on CCRF-CEM is > 100 µM (inactive); in the assay on HCT-116, > 100 µM (inactive); in the assay with HCT-15, 65 µM; in the assay on IGROV-1, > 100 µM (inactive); with CAKI-1, 39.6 µM (inactive); in the assay on UACC-257, > 100 µM (inactive). Besides, the GI50 in the assay with M14 was 97.1 µM (inactive); with K562, > 100 µM (inactive); in the assay with UACC-62, 69.2 µM (inactive); with SNB-19, > 100 µM (inactive); with U-251, 52.8 µM (inactive); with DMS-273, > 100 µM (inactive). In addition, the GI50 in the assay on A498 is 66.1 µM (inactive); with OVCAR-8, 92.5 µM (inactive).
